The record followed here is patent US6593480B2 (Abbott Laboratories, priority 1999, dated 2003).

The target in the assay is T1, progesterone receptor (PR) (Homo sapiens, UniProt P06401).
T1 sequence (P06401 1-933): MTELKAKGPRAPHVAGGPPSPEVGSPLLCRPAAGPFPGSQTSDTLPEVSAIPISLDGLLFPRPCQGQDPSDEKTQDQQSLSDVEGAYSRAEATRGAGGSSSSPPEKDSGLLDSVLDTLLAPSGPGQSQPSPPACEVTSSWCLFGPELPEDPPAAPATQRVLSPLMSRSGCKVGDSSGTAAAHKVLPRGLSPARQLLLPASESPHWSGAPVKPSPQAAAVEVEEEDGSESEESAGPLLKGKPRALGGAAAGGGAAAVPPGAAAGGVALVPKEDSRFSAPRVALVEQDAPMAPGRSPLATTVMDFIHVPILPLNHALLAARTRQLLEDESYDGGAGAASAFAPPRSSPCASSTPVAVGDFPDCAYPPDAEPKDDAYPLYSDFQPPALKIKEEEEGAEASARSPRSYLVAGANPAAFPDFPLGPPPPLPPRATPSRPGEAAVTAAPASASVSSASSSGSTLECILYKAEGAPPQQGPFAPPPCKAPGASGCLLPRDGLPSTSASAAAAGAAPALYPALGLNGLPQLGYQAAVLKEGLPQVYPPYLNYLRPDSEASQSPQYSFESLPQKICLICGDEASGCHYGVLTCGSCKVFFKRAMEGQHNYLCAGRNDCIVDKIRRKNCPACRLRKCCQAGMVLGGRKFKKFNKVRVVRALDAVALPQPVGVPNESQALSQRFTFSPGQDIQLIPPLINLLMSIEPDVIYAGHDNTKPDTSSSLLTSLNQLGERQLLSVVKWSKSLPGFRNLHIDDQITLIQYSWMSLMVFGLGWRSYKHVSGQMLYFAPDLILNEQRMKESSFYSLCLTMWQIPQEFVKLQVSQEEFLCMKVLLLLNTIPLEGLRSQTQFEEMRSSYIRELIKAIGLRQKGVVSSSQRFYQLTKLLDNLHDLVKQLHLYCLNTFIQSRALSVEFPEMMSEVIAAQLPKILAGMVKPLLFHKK
Description: Radioligand binding assay with progesterone receptor cytosol (similar protocol). An excerpt: Methods for Radioligand Binding Studies with Human Glucocorticoid and Progesterone Receptor Cytosol
A similar protocol was employed to measure affinity of the compounds of the present invention for progesterone receptor (PR).

Broadly, the IC50 is the concentration needed to halve the response being measured. A low value points to greater potency in that assay. `CCCS(=O)(=O)N(C)c1cccc(C2Oc3cccc(OC)c3-c3ccc(NS(C)(=O)=O)cc32)c1` (stereo not drawn) [Example 132, N-(3-{1-methoxy-8-[(methylsulfonyl)amino]-6H-benzo[c]chromen-6-yl}phenyl)-N-methyl-1-propanesulfonamide] returned an IC50 of over 10000 nM.
As for `CS(=O)(=O)Nc1ccc2c(c1)C(c1cccc(CCCCCCC#N)c1)Oc1cccc(OC(F)F)c1-2` (stereo not drawn) [Example 137, N-[6-[3-(6-cyanohexyl)phenyl]-1-(difluoromethoxy)-6H-benzo[c]chromen-8-yl]methanesulfonamide], the figure is over 10000 nM; as for `COc1cccc2c1-c1ccc(NS(C)(=O)=O)cc1C(c1cccc(N(C)S(=O)(=O)c3ccc(Br)cc3)c1)O2` (stereo not drawn) [Example 152, 4-bromo-N-(3-{1-methoxy-8-[(methylsulfonyl)amino]-6H-benzo[c]chromen-6-yl}phenyl)-N-methylbenzenesulfonamide], at least 10000 nM; as for `COCCCc1cccc(C2Oc3cccc(OC(F)F)c3-c3ccc(NS(C)(=O)=O)cc32)c1` (stereo not drawn) [Example 117, N-{1-(difluoromethoxy)-6-[3-(3-methoxypropyl)phenyl]-6H-benzo[c]chromen-8-yl}methanesulfonamide], 430 nM.
As for `COc1cccc2c1-c1ccc(NS(C)(=O)=O)cc1C(c1cccc(C#Cc3ccccc3)c1)O2` (stereo not drawn) [Example 91, N-{1-methoxy-6-[3-(phenylethynyl)phenyl]-6H-benzo[c]chromen-8-yl}methanesulfonamide], the figure is over 1000 nM; as for `C=CCN(C)c1cccc(C2Oc3cccc(OC)c3-c3ccc(NS(C)(=O)=O)cc32)c1` (stereo not drawn) [Example 80, N-(6-{3-[allyl(methyl)amino]phenyl}-1-methoxy-6H-benzo[c]chromen-8-yl)methanesulfonamide], 620 nM; as for `COc1cccc2c1-c1ccc(NS(C)(=O)=O)cc1C(c1cccc(-c3ccc(C)cc3)c1)O2` (stereo not drawn) [Example 123, N-[1-methoxy-6-(4′-methyl[1,1′-biphenyl]-3-yl)-6H-benzo[c]chromen-8-yl]methanesulfonamide], over 10000 nM.
The compound `CNc1cccc(C2Oc3cccc(OC)c3-c3ccc(NS(C)(=O)=O)cc32)c1` (stereo not drawn) [Example 81, N-{1-methoxy-6-[3-(methylamino)phenyl]-6H-benzo[c]chromen-8-yl}methanesulfonamide] gave an IC50 of 9360 nM.
For `COc1cccc2c1-c1ccc(NS(C)(=O)=O)cc1C(c1cccc(Br)c1)O2` (stereo not drawn) [Example 82, N-[6-(3-bromophenyl)-1-methoxy-6H-benzo[c]chromen-8-yl]methanesulfonamide] the value was 300 nM.
Compound `CS(=O)(=O)Nc1ccc2c(c1)C(c1cccc(-c3ccc(F)cc3)c1)Oc1cccc(OC(F)F)c1-2` (stereo not drawn) [Example 144, N-[1-(difluoromethoxy)-6-(4′-fluoro[1,1′-biphenyl]-3-yl)-6H-benzo[c]chromen-8-yl]methanesulfonamide] came in with an IC50 of 140 nM.
Compound `COc1cccc2c1-c1ccc(NS(C)(=O)=O)cc1C(c1cccc(N(C)S(=O)(=O)CCCCl)c1)O2` (stereo not drawn) [Example 130, 3-chloro-N-(3-{1-methoxy-8-[(methylsulfonyl)amino]-6H-benzo[c]chromen-6-yl}phenyl)-N-methyl-1-propanesulfonamide] returned an IC50 of over 10000 nM.
As for `COc1cccc2c1-c1ccc(NS(C)(=O)=O)cc1C(c1ccccc1)O2` (stereo not drawn) [Example 5, N-(1-methoxy-6-phenyl-6H-dibenzo[b,d]pyran-8-yl)methanesulfonamide], the figure is 3350 nM; as for `COc1cccc2c1-c1ccc(NS(=O)(=O)c3ccccc3F)cc1C(c1ccccc1)O2` (stereo not drawn) [Example 18], over 10000 nM; as for `COc1cccc2c1-c1ccc(NS(C)(=O)=O)cc1C(c1cccc(-c3ccc(Cl)cc3)c1)O2` (stereo not drawn) [Example 126, N-[6-(4′-chloro[1,1′-biphenyl]-3-yl)-1-methoxy-6H-benzo[c]chromen-8-yl]methanesulfonamide], over 10000 nM.
The compound `COc1cccc2c1-c1ccc(NS(C)(=O)=O)cc1C(c1cccc(/C=C/c3ccccc3)c1)O2` (stereo not drawn) [Example 99, N-(1-methoxy-6-{3-[(E)-2-phenylethenyl]phenyl}-6H-benzo[c]chromen-8-yl)methanesulfonamide] gave an IC50 of over 1000 nM.
For `COc1cccc2c1-c1ccc(NS(C)(=O)=O)cc1C(c1cccc(N(C)S(C)(=O)=O)c1)O2` (stereo not drawn) [Example 83, N-(1-methoxy-6-{3-[methyl(methylsulfonyl)amino]phenyl}-6H-benzo[c]chromen-8-yl)methanesulfonamide] the value was 3630 nM; for `C=CCOc1ccc(C2Oc3cccc(OC)c3-c3ccc(NS(C)(=O)=O)cc32)cc1` (stereo not drawn) [Example 32, (1methoxy-6-(4-allyloxy)phenyl-6H-dibenzo(b,d)pyran-8-yl)-methanesulfonamide], over 10000 nM.
In turn, `COc1cccc(C2Oc3cccc(OC(F)F)c3-c3ccc(NS(C)(=O)=O)cc32)c1` (stereo not drawn) [Example 108, N-[1-(difluoromethoxy)-6-(3-methoxyphenyl)-6H-benzo[c]chromen-8-yl]methanesulfonamide] showed an IC50 of 170 nM.
As for `C=Cc1c(NS(C)(=O)=O)ccc2c1C(c1cccc(C(F)(F)F)c1)Oc1cccc(OC)c1-2` (stereo not drawn) [Example 3, (1-methoxy-6-(3-trifluoromethyl)phenyl-7-vinyl-6H-dibenzo(b,d)pyran-8-yl)methanesulfonamide], the figure is over 10000 nM; as for `CCCCC/C=C/C1Oc2cccc(OC)c2-c2ccc(NS(C)(=O)=O)cc21` (stereo not drawn) [Example 98, N-{6-[(1E)-1-heptenyl]-1-methoxy-6H-benzo[c]chromen-8-yl}methanesulfonamide], 92 nM.
In turn, `COc1ccc(-c2cccc(C3Oc4cccc(OC)c4-c4ccc(NS(C)(=O)=O)cc43)c2)cc1` (stereo not drawn) [Example 125, N-[1-methoxy-6-(4′-methoxy[1,1′-biphenyl]-3-yl)-6H-benzo[c]chromen-8-yl]methanesulfonamide] returned an IC50 of over 10000 nM.
For `COc1cccc2c1-c1ccc(NS(C)(=O)=O)cc1C(c1cc(C)cc(C)c1)O2` (stereo not drawn) [Example 87, N-[6-(3,5-dimethylphenyl)-1-methoxy-6H-benzo[c]chromen-8-yl]methanesulfonamide] the value was 210 nM.
For `Nc1ccc2c(c1Br)C(c1ccccc1)Oc1cccc(OC(F)F)c1-2` (stereo not drawn) [Example 4, 8-Amino-7-bromo-1-difluoromethoxy-6-phenyl-6H-dibenzo[b,d]pyran] the value was 460 nM.
For `COc1cccc(-c2cccc(C3Oc4cccc(OC)c4-c4ccc(NS(C)(=O)=O)cc43)c2)c1` (stereo not drawn) [Example 124, N-[1-methoxy-6-(3′-methoxyl[1,1′-biphenyl]-3-yl)-6H-benzo[c]chromen-8-yl]methanesulfonamide], the IC50 is over 10000 nM.
As for “(1-ethoxy-6-phenyl-6H-dibenzo(b,d)pyran-8-yl)methanesulfonamide [Example 44]”, the figure is 6900 nM; as for `CS(=O)(=O)Nc1ccc2c(c1)C(c1cccc(-c3ccc(Cl)cc3)c1)Oc1cccc(OC(F)F)c1-2` (stereo not drawn) [Example 143, N-[6-(4′-chloro[1,1′-biphenyl]-3-yl)-1-(difluoromethoxy)-6H-benzo[c]chromen-8-yl]methanesulfonamide], 220 nM; as for `CS(=O)(=O)Nc1ccc2c(c1)C(c1cccc(Br)c1)Oc1cccc(OC(F)F)c1-2` (stereo not drawn) [Example 103, N-[6-(3-bromophenyl)-1-(difluoromethoxy)-6H-benzo[c]chromen-8-yl]methanesulfonamide], 180 nM.
